The source of these data is US20220211796A1, “PEPTIDE ANTIBIOTICS AND METHODS OF USE THEREOF” (priority 2019, published 2022).

The conditions of series [1]: relative to D-Ala-D-Ala precursor; cited from earlier work.
Another series relates to HeLa cells. The experiment in a line: Mammalian cytotoxicity (MTT) assay. The note with it: 24 h, b121: concentrations up to 256 μg/ml. The protocol:
Cervical cancer cells (HeLa) were cultured in Dulbecco's Modified Eagle's medium (DMEM) (Invitrogen #11995-073) supplemented with 10% bovine calf serum at 37° C., 5% CO2, and seeded (5×10^3 cells/well) in 96-well plate flat-bottomed plate for 24 h before the assay. […] After washing the cells with PBS, the cells were subjected to the standard yellow tetrazolium (3-(4,5-dimethylthiazol-2-yl)-2,5-diphenyltetrazolium bromide (MTT) assay protocol at final concentration of 0.5 mg/ml for 4 h in a humidified 5% CO2 atmosphere at 37° C. MTT solution was then aspirated, and the purple formazan crystals were resuspended in DMSO by incubation for 5 min at 37° C. The absorbance at 540 nm was then read using a microplate reader. Viability control (100% viability) was assigned to samples with only HeLa cells and DMEM media, 0% viability was assigned to samples with 1% added Triton-X-100 and no peptide. Experiments were performed as triplicates at different days.

For series [2] the following is noted: read-out: Kd of vancomycin:D-Ala-D-Ala complex; cited from earlier work.
The next series concerns E. coli ATCC 25992. Put plainly: microbe, parasite or virus in culture. The method, then: (§1) The L-peptides identified from five different phage display libraries were catalogued as described previously and selected sequences were synthesized in D-enantiomeric form by SPPS for further investigation in several biological assays.
(§2) MICs were determined according to a 96-well microdilution protocol outlined by the Clinical and Laboratory Standard Institute (CLSI) guideline with modifications for peptide antibiotics reported by Wiegand et al.^35 Two-fold serial peptide dilutions were performed to go from 2560 μg/ml to 5 μg/ml in0.2% BSA and 0.01% acetic acid buffer in 96-well polypropylene plates (COSTAR, #3879). Dilution of bacterial suspensions (1:200) of different bacterial strains that were grown until 0.5 McFarland standard were prepared to obtain a final inoculum concentration of 8×10^5 CFU/ml in Mueller-Hinton broth.

Series [3] has as its system Methicillin-resistant S. aureus (MRSA) ATCC 43300. The experiment in a line: microbe, parasite or virus in culture. The method, then:
as §1, §2

Series [4] relates to high level vancomycin resistant E. faecium (vanA) ATCC 51559. Put plainly: microbe, parasite or virus in culture. The protocol:
as §1, §2

Series [5] deals with low level vancomycin resistant E. faecium (vanB) ATCC 51299. The experiment in a line: microbe, parasite or virus in culture. The protocol: as §1, §2
In another series the test system is E. faecalis ATCC 29121. Put plainly: microbe, parasite or virus in culture. The method, then: as §1, §2
The next series deals with B. subtilis ATCC 6633. Put plainly: microbe, parasite or virus in culture. The protocol:
as §1, §2

Another series relates to S. aureus ATCC 6538. The experiment in a line: microbe, parasite or virus in culture. The method, then:
as §1, §2

Series [6] deals with human red blood cells (hRBC). Put plainly: Hemolytic activity. The class given is cell-based. The method, then:
Fresh red human blood cells (hRBC) were washed and centrifuged at 3000 rpm for 5 min at 4° C. with PBS until a clear solution was obtained. Two-fold serial dilutions of each peptide in PBS from 0.5 μg/ml to 256 μg/ml were incubated with 0.25% (v/v) hRBC suspension at 37° C. for 1 h, and then centrifuged for 5 min at 3500 rpm in 96-well plate. 50 μl of the supernatant from each well was diluted with 50 μl pure water, and the OD at 415 nm was measured using microplate reader. Melittin at the same concentrations (200 μg/ml for complete lysis) was used as a positive control. Percent hemolysis was calculated according to the equation: […]
where complete hemolysis was defined as the average hemolysis of all wells containing a final concentration of melittin ranging from 50 to 400 μg/ml. Experiments were performed as triplicates at different days.

Series [7] concerns cell wall biosynthesis in S. aureus. Put plainly: Accumulation of UDP-N-acetylmuramyl-pentapeptide precursor. The class given is cell-based. The conditions noted are these: 10-fold MIC, 1 h. An excerpt:
We next examined the effect of P14 and P15 on cell wall biosynthesis in live bacteria. Blockade of this biosynthetic pathway causes accumulation of the water soluble intracellular intermediate lipid II precursor UDP-MurNAc-L-Ala-D-γ-Glu-L-Lys-D-Ala-D-Ala.^40 This intermediate is detectable after extraction from the cytosol in response to antibiotic administration by chromatographic methods.
Accumulation of UDP-N-acetylmuramyl-pentapeptide precursor from S. aureus Accumulation of peptidoglycan precursor of S. aureus […] was analyzed in the presence of peptide antibiotics. Bacteria were grown at 37° C. till OD600 of 0.5 was attained. Ten times MICs of peptide antibiotics were added per ml of grown bacterial culture and allowed to stand for 1 h. After cooling the cells on ice, they were harvested by centrifugation at 4° C. for 15 min. Bacterial cells were suspended in distilled water, and then slowly stirred into boiling water for 15 min. The suspension was allowed to cool first at room temperature, then on ice. After centrifugation at 4° C. for 1 h, the supernatant was lyophilized. The lyophilized sample was dissolved in water, and pH was adjusted to 2 by addition of 20% H3PO4. The white precipitate was removed by centrifugation, and the supernatant was immediately subjected to RP-HPLC analysis and MWs were assessed by MALDI-TOF mass spectroscopy.

Series [8] deals with several Gram-positive strains (with one Gram-negative strain as control). The experiment in a line: MIC / antibiotic susceptibility, strains not singled out. The class given is cell-based. The note with it: vancomycin-sensitive bacteria. The method, then:
as §1, §2

The next series deals with S. aureus. Put plainly: Time-kill kinetic assay. The class given is cell-based. The note with it: 10×MIC, 5×MICs. The method, then:
The bacteria-killing kinetics of peptides with S. aureus was measured at 5×MICs, and vancomycin was used as a positive control. An overnight culture of bacterial cells was re-suspended in fresh MH broth at density of 10^7 cells/ml, and cultured with peptides at 37° C. Viable colony forming units (CFUs) were counted by performing tenfold serial dilutions of the aliquot sample at intervals of 0, 1, 2, 4, 8, 12, and 24 hours after inoculation, and plated on MHB agar plates. Time-kill curves were plotted as Log10 (cfu ml^−1) versus time functions.

pKd: −log10 of the molar value. In brackets after ≈: the same amount, converted by molar mass. Square brackets hold non-standard residues; d marks the D form. Ends that are not written are not given here. A value given as a limit tells only on which side of the number the result lay.

For orientation: pKd means −log10 of the Kd, conventionally taken in molar units. For the compound `CN[C@H](CC(C)C)C(=O)N[C@H]1C(=O)N[C@@H](CC(N)=O)C(=O)N[C@H]2C(=O)N[C@H]3C(=O)N[C@H](C(=O)N[C@H](C(=O)O)c4cc(O)cc(O)c4-c4cc3ccc4O)[C@H](O)c3ccc(c(Cl)c3)Oc3cc2cc(c3O[C@@H]2O[C@H](CO)[C@@H](O)[C@H](O)[C@H]2O[C@H]2C[C@](C)(N)[C@H](O)[C@H](C)O2)Oc2ccc(cc2Cl)[C@H]1O` [P1, Vancomycin, reference compound], in [1], the “reduction of binding affinity on D-alanine to D-lactate substitution” value is on record as roughly 1000 fold. Besides, the “cytotoxicity on HeLa cells” value with HeLa cells is “non-toxic”. For the same compound, the pKd in series [2] is roughly 6.00. The MIC in the series on E. coli ATCC 25992 (Escherichia coli, ATCC25992, read-out: MIC E. coli) is greater than 256 µg/mL; in [3] (Staphylococcus aureus, read-out: MIC MRSA) it was 0.5 µg/mL (≈ 0.345 µM); in [4] (Enterococcus faecium, ATCC51559 / VRE, read-out: MIC VRE (vanA)), greater than 256 µg/mL; in series [5] (Enterococcus faecium, ATCC51299 / VRE, read-out: MIC VRE (vanB)) it was 32 µg/mL (≈ 22.1 µM); in the series with E. faecalis ATCC 29121 (Enterococcus faecalis, ATCC29121, read-out: MIC E. faecalis) it was 1 µg/mL (≈ 0.69 µM); in the series with B. subtilis ATCC 6633 (Bacillus subtilis, ATCC6633, read-out: MIC B. subtilis) it was 0.5 µg/mL (≈ 0.345 µM). Further, the MIC with S. aureus ATCC 6538 (Staphylococcus aureus, ATCC6538, read-out: MIC S. aureus) turned out to be 0.5 µg/mL (≈ 0.345 µM). Besides, the “MIC E. coli” value against E. coli ATCC 25992 (Table 6, E. Coli ATCC25992) is greater than 256 µg/mL. In addition, the “MIC MRSA” value in [3] (Table 6, MRSA ATCC43300) was 0.5 µg/mL (≈ 0.345 µM). In addition, in [4], the “activity against vanA / high-level vancomycin-resistant strain” value was “no activity”. The “MIC VRE (vanA)” value in [4] (Table 6, high level vancomycin resistant E. faecium ATCC51559) is greater than 256 µg/mL. Also, the “MIC VRE (vanB)” value in [5] (Table 6, low level vancomycin resistant E. faecium ATCC51299) turned out to be 32 µg/mL (≈ 22.1 µM). Further, the “MIC E. faecalis” value in the series on E. faecalis ATCC 29121 (Table 6, E. faecalis ATCC29121) came to 1 µg/mL (≈ 0.69 µM). Moreover, in the series on B. subtilis ATCC 6633 (Table 6, B. subtilis ATCC6633), the “MIC B. subtilis” value is 0.5 µg/mL (≈ 0.345 µM). The “MIC S. aureus” value with S. aureus ATCC 6538 (Table 6, S. aureus ATCC6538) amounted to 0.5 µg/mL (≈ 0.345 µM). In addition, the “percentage hemolysis of hRBCs” value in series [6] (0.25% hRBC, 37° C., 1 h) was found to be 0%.

For `CC[C@H](C)[C@H](NC(=O)CN)C(=O)NCC(=O)N[C@@H](C)C(=O)N[C@H](C(=O)N[C@@H](CC(C)C)C(=O)N[C@@H](CCCCN)C(=O)N[C@H](C(=O)N[C@@H](CC(C)C)C(=O)N[C@H](C(=O)N[C@H](C(=O)NCC(=O)N[C@@H](CC(C)C)C(=O)N1CCC[C@H]1C(=O)N[C@@H](C)C(=O)N[C@@H](CC(C)C)C(=O)N[C@H](C(=O)N[C@@H](CO)C(=O)N[C@@H](Cc1c[nH]c2ccccc12)C(=O)N[C@H](C(=O)N[C@@H](CCCCN)C(=O)N[C@@H](CCCNC(=N)N)C(=O)N[C@@H](CCCCN)C(=O)N[C@@H](CCCNC(=N)N)C(=O)N[C@@H](CCC(N)=O)C(=O)N[C@@H](CCC(N)=O)C(N)=O)[C@@H](C)CC)[C@@H](C)CC)[C@@H](C)O)[C@@H](C)O)C(C)C)C(C)C` [P2, Melittin], the “cytotoxicity on HeLa cells” value in the series with HeLa cells is given as “toxic”.

Regarding “CSLITQCGGVGC ([dC][dS][dL][dI][dT][dQ][dC]GG[dV]G[dC]; not fully specified (bridges); also: bicyclic, ring places and kind not given here) [P15, bicyclic D-peptide (library BC-B)]”, in [7], the “accumulation of UDP-MurNAc-pentapeptide” value is “accumulation of UDP-MurNAc-pentapeptide at levels similar to vancomycin”. Also, the “activity against vancomycin-sensitive bacterial strains” value in [8] was “similarly high activity as P14”. The “MIC E. coli” value against E. coli ATCC 25992 (Table 5, E. coli ATCC 25992) is greater than 256 µg/mL. Moreover, the “MIC MRSA” value in [3] (Table 5, MRSA ATCC 43300) was determined as 32 µg/mL. For the same compound, the “MIC VRE (vanA)” value in series [4] (Table 5, high level vancomycin resistant E. faecium ATCC 51559) was greater than 256 µg/mL. Further, in [5] (Table 5, low level vancomycin resistant E. faecium ATCC 51299), the “MIC VRE (vanB)” value was 128 µg/mL. Moreover, in the series on E. faecalis ATCC 29121 (Table 5, E. faecalis ATCC 29121), the “MIC E. faecalis” value was 16 µg/mL. In addition, the “MIC B. subtilis” value in the series on B. subtilis ATCC 6633 (Table 5, B. subtilis ATCC 6633) is 8 µg/mL. Also, in the series on S. aureus ATCC 6538 (Table 5, S. aureus ATCC 6538), the “MIC S. aureus” value amounted to 8 µg/mL. For the same compound, the “lysis / toxicity on red blood cells” value in series [6] (concentrations up to 256 μg/ml) was “neither caused lysis of erythrocytes”. The “killing kinetics / bactericidal activity” value in the series with S. aureus is “bactericidal activity similar to vancomycin”.
